This passage reports IC50 results from US6949571B2, “1,2-dihydropyridine compounds, process for preparation of the same and use thereof” (Eisai Co., Ltd., priority 2000, dated 2005).
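Note: primary rat embryonic cortical neurons grown on an astrocyte layer in 96-well plates, used after at least 8 to 10 days in culture, Fura2-AM fluorescence ratio at 340/380 nm excitation.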

This assay has as its system AMPA receptor. As to conditions: Table 2; suppression of AMPA-induced calcium influx into nerve cells.
For `Nc1ccc(-c2cc(-c3ccccn3)cn(-c3ccccc3)c2=O)cc1` [Example 221, 3-(4-Aminophenyl)-1-phenyl-5-(2-pyridyl)-1,2-dihydropyridin-2-one], the IC50 worked out at 7.1 µM. Turning to `Cc1ccc(-n2cc(-c3ccccn3)cc(-c3ccccc3C#N)c2=O)cc1N` [Example 222, 3-(2-Cyanophenyl)-5-(2-pyridyl)-1-(2-aminotoluen-4-yl)-1,2-dihydropyridin-2-one], the IC50 was 0.2 µM.

For `CS(=O)(=O)Nc1ccccc1-c1cc(-c2ccccn2)cn(-c2ccccc2)c1=O` [Example 226, 3-[2-(Methylsulfonylamino)phenyl]-1-phenyl-5-(2-pyridyl)-1,2-dihydropyridin-2-one], the IC50 was 9.5 µM.

`CS(=O)(=O)Nc1ccc(-c2cc(-c3ccccn3)cn(-c3ccccc3)c2=O)cc1` [Example 227, 3-[4-(Methanesulfonylamino)phenyl]-1-phenyl-5-(2-pyridyl)-1,2-dihydropyridin-2-one]: the IC50 stood at 1.8 µM.

On to `CS(=O)(=O)Nc1cccc(-c2cc(-c3ccccn3)cn(-c3ccccc3)c2=O)c1` [Example 228, 3-[3-(Methanesulfonylamino)phenyl]-1-phenyl-5-(2-pyridyl)-1,2-dihydropyridin-2-one], for which the IC50 was 2.7 µM. For `CC(=O)Nc1cccc(-c2cc(-c3ccccc3C#N)c(=O)n(-c3ccccc3)c2)n1` [Example 229, 5-[(6-Acetylamino)pyridin-2-yl]-3-(2-cyanophenyl)-1-phenyl-1,2-dihydropyridin-2-one], the IC50 was 4.2 µM. In the case of `CC(=O)Nc1ccccc1-c1cc(-c2ccccn2)cn(-c2ccccc2)c1=O` [Example 230, 3-[2-(Acetylamino)phenyl]-1-phenyl-5-(2-pyridyl)-1,2-dihydropyridin-2-one], the IC50 is 4 µM. Under `CC(=O)Nc1cccc(-c2cc(-c3ccccn3)cn(-c3ccccc3)c2=O)c1` [Example 232, 3-[3-(Acetylamino)phenyl]-1-phenyl-5-(2-pyridyl)-1,2-dihydropyridin-2-one] stands 4.3 µM. Under `CN(C)c1ccc(-c2cc(-c3ccccn3)cn(-c3ccccc3)c2=O)cc1` [Example 234, 3-(4-Dimethylaminophenyl)-1-phenyl-5-(2-pyridyl)-1,2-dihydropyridin-2-one] stands 0.9 µM; under `N#Cc1ccccc1-c1cc(-c2cccc(C(N)=O)n2)cn(-c2ccccc2)c1=O` [Example 235, 5-[(6-Aminocarbonyl)pyridin-2-yl]-3-(2-cyanophenyl)-1-phenyl-1,2-dihydropyridin-2-one], 4.4 µM; under `N#Cc1cccc(-c2cc(-c3ccccc3C#N)c(=O)n(-c3ccccc3)c2)n1` [Example 236, 3-(2-Cyanophenyl)-5-(2-cyanopyridin-6-yl)-1-phenyl-1,2-dihydropyridin-2-one], 0.6 µM. The result for `O=c1c(-c2cccc(O)c2)cc(-c2ccccn2)cn1-c1ccccc1` [Example 237, 3-(3-Hydroxyphenyl)-1-phenyl-5-(2-pyridyl)-1,2-dihydropyridin-2-one] reads 1.5 µM; that for `O=c1c(-c2ccc(O)cc2)cc(-c2ccccn2)cn1-c1ccccc1` [Example 238, 3-(4-Hydroxyphenyl)-1-phenyl-5-(2-pyridyl)-1,2-dihydropyridin-2-one], 0.6 µM; that for `CN(C)CCOc1cccc(-n2cc(-c3ccccn3)cc(-c3ccccc3C#N)c2=O)c1` [Example 239, 3-(2-Cyanophenyl)-1-[3-(dimethylaminoethoxy)phenyl]-5-(2-pyridyl)-1,2-dihydropyridin-2-one], 0.3 µM. `N#Cc1ccccc1-c1cc(-c2ccccn2)cn(-c2cccc(OCCN3CCCCC3)c2)c1=O` [Example 240, 3-(2-Cyanophenyl)-1-[3-(piperidinoethoxy)phenyl]-5-(2-pyridyl)-1,2-dihydropyridin-2-one]: the IC50 was 0.1 µM.

As for `N#Cc1ccccc1-c1cc(-c2ccccn2)cn(-c2cccc(OCCN3CCCC3)c2)c1=O` [Example 241, 3-(2-Cyanophenyl)-1-[3-(pyrrolidinoethoxy)phenyl]-5-(2-pyridyl)-1,2-dihydropyridin-2-one], the IC50 was 0.4 µM. Under `CC(C)N(CCOc1cccc(-n2cc(-c3ccccn3)cc(-c3ccccc3C#N)c2=O)c1)C(C)C` [Example 242, 3-(2-Cyanophenyl)-1-[3-(diisopropylaminoethoxy)phenyl]-5-(2-pyridyl)-1,2-dihydropyridin-2-one] stands 0.5 µM.

`CN(C)CCCOc1cccc(-n2cc(-c3ccccn3)cc(-c3ccccc3C#N)c2=O)c1` [Example 243, 3-(2-Cyanophenyl)-1-[3-(dimethylaminopropyloxy)phenyl]-5-(2-pyridyl)-1,2-dihydropyridin-2-one]: the IC50 is 1.2 µM. Take `N#Cc1ccccc1-c1cc(-c2ccccn2)cn(-c2cccc(OCCCN3CCCCC3)c2)c1=O` [Example 244, 3-(2-Cyanophenyl)-1-[3-(piperidinopropyloxy)phenyl]-5-(2-pyridyl)-1,2-dihydropyridin-2-one]: the IC50 amounted to 1.8 µM. Under `N#Cc1ccccc1-c1cc(-c2ccccn2)cn(-c2cccc(OCCN3CCOCC3)c2)c1=O` [Example 245, 3-(2-Cyanophenyl)-1-[3-(morpholinoethoxy)phenyl]-5-(2-pyridyl)-1,2-dihydropyridin-2-one] stands 1.2 µM; under `CCN(CC)CCOc1cccc(-n2cc(-c3ccccn3)cc(-c3ccccc3C#N)c2=O)c1` [Example 246, 3-(2-Cyanophenyl)-1-[3-(diethylaminoethoxy)phenyl]-5-(2-pyridyl)-1,2-dihydropyridin-2-one], 1.1 µM. For `CN(C)CCOc1cccc(-c2cc(-c3ccccn3)cn(-c3ccccc3)c2=O)c1` [Example 247, 3-[3-(Dimethylaminoethoxy)phenyl]-1-phenyl-5-(2-pyridyl)-1,2-dihydropyridin-2-one], the half-maximal inhibitory concentration (IC50) worked out at 3.6 µM. Under `CN(C)CCOc1ccc(-c2cc(-c3ccccn3)cn(-c3ccccc3)c2=O)cc1` [Example 248, 3-[4-(Dimethylaminoethoxy)phenyl]-1-phenyl-5-(2-pyridyl)-1,2-dihydropyridin-2-one] stands 3.4 µM; under `N#Cc1ccccc1-c1cc(-c2ccccn2)cn(-c2cccc(OCCCCN3CCCCC3)c2)c1=O` [Example 249, 3-(2-Cyanophenyl)-1-[3-(4-piperidinobutyl-1-oxy)phenyl]-5-(2-pyridyl)-1,2-dihydropyridin-2-one], 0.3 µM; under `N#Cc1ccccc1-c1cc(-c2ccccn2)cn(-c2cccc(CN3CCCC3)c2)c1=O` [Example 250, 3-(2-Cyanophenyl)-1-[3-(pyrrolidinomethyl)phenyl]-5-(2-pyridyl)-1,2-dihydropyridin-2-one], 0.9 µM. Consider `CC(=O)N1CCN(Cc2cccc(-n3cc(-c4ccccn4)cc(-c4ccccc4C#N)c3=O)c2)CC1` [Example 251, 1-[3-[(4-Acetylpiperazino)methyl]phenyl]-3-(2-cyanophenyl)-5-(2-pyridyl)-1,2-dihydropyridin-2-one], for which the IC50 worked out at 0.9 µM. The result for `N#Cc1ccccc1-c1cc(-c2ccccn2)cn(-c2ccc([N+](=O)[O-])cc2)c1=O` [Example 252, 3-(2-Cyanophenyl)-1-(4-nitrophenyl)-5-(2-pyridyl)-1,2-dihydropyridin-2-one] reads 0.3 µM; that for `O=c1c(-c2cnccn2)cc(-c2ccccn2)cn1-c1ccccc1` [Example 253, 1-Phenyl-3-(2-pyrazyl)-5-(2-pyridyl)-1,2-dihydropyridin-2-one], 4.7 µM; that for `O=c1c(-c2nccs2)cc(-c2ccccn2)cn1-c1ccccc1` [Example 255, 1-Phenyl-5-(2-pyridyl)-3-(2-thiazoyl)-1,2-dihydropyridin-2-one], 0.5 µM. Under `O=c1c(-c2ccncn2)cc(-c2ccccn2)cn1-c1ccccc1` [Example 256, 1-Phenyl-3-(4-pyrimidinyl)-5-(2-pyridyl)-1,2-dihydropyridin-2-one] stands 1.2 µM.

For the compound `O=c1c(-c2cncnc2)cc(-c2ccccn2)cn1-c1ccccc1` [Example 257, 1-Phenyl-3-(5-pyrimidinyl)-5-(2-pyridyl)-1,2-dihydropyridin-2-one], the half-maximal inhibitory concentration (IC50) came to 3.7 µM. The result for `O=c1c(-c2ccnnc2)cc(-c2ccccn2)cn1-c1ccccc1` [Example 259, 1-Phenyl-3-(4-pyridazyl)-5-(2-pyridyl)-1,2-dihydropyridin-2-one] reads 2 µM; that for `COc1cccc(-c2cc(-c3ccccn3)cn(-c3ccccc3)c2=O)n1` [Example 260, 3-(2-Methoxypyridin-6-yl)-1-phenyl-5-(2-pyridyl)-1,2-dihydropyridin-2-one], 2.7 µM; that for `O=c1c(-c2cccnc2F)cc(-c2ncccn2)cn1-c1cccnc1` [Example 263, 3-(2-Fuluoropyridin-3-yl)-1-(3-pyridyl)-5-(2-pyrimidinyl)-1,2-dihydropyridin-2-one], 1 µM.

As to `N#Cc1ncccc1-c1cc(-c2ncccn2)cn(-c2cccnc2)c1=O` [Example 265, 3-(2-Cyanopyridin-3-yl)-1-(3-pyridyl)-5-(2-pyrimidinyl)-1,2-dihydropyridin-2-one], the IC50 was 0.7 µM. The result for `N#Cc1ccccc1-c1cc(-c2ncccn2)cn(-c2cccc([N+](=O)[O-])c2)c1=O` [Example 266, 3-(2-Cyanophenyl)-1-(3-nitrophenyl)-5-(2-pyrimidinyl)-1,2-dihydropyridin-2-one] reads 0.1 µM. `O=c1c(-c2cscn2)cc(-c2ccccn2)cn1-c1ccccc1` [Example 267, 1-Phenyl-5-(2-pyridyl)-3-(thiazol-4-yl)-1,2-dihydropyridin-2-one]: the IC50 amounted to 1 µM. Under `O=C1C=C(c2cc(-c3ccccn3)cn(-c3ccccc3)c2=O)CCC1` [Example 268, 3-(3-Oxo-1-cyclohexen-1-yl)-1-phenyl-5-(2-pyridyl)-1,2-dihydropyridin-2-one] stands 4.2 µM. Under `O=c1c(C2=COCCO2)cc(-c2ccccn2)cn1-c1ccccc1` [Example 269, 3-(5,6-Dihydro-1,4-dioxin-2-yl)-1-phenyl-5-(2-pyridyl)-1,2-dihydropyridin-2-one] stands 1.9 µM; under `CC(=O)c1ccccc1-c1cc(-c2ccccn2)cn(-c2ccccc2)c1=O` [Example 272, 3-(2-Acetylphenyl)-5-(2-pyridyl)-1-phenyl-1,2-dihydropyridin-2-one], 3.3 µM.
